According to publication PMC12221116, “Novel Quinazolinones Active against Multidrug‐Resistant Mycobacterium Tuberculosis: Synthesis, Antimicrobial Evaluation, and in Silico Exploration of Penicillin‐Binding Protein 1A as a Potential Target” (Chemmedchem, 2025):
In brackets after ≈: the same amount, converted by molar mass. Where two headings read alike, the source gives them in different places.

How the values were obtained:
M. avium = experiment: Microdilution broth resazurin assay, MIC; type: cell-based, Mycobacterium avium
MRC-5 [1] = details: cytotoxicity
M. aurum = experiment: Microdilution broth resazurin assay, MIC; type: cell-based, Mycolicibacterium aurum
Mtb H37Rv = experiment: Microplate Alamar Blue assay, MIC; type: cell-based, Mycobacterium tuberculosis; details: for MIC: Mycobacterium tuberculosis, H37RV
M. smegmatis = experiment: Microdilution broth resazurin assay, MIC; type: cell-based, Mycolicibacterium smegmatis
Mtb H37Ra = experiment: Microdilution broth resazurin assay, MIC; type: cell-based, Mycobacterium tuberculosis
M. kansasii = experiment: Microplate Alamar Blue assay, MIC; type: cell-based, Mycobacterium kansasii; details: for MIC: Mycobacterium kansasii, read-out: Antimycobacterial Activity MIC M. kans.
HepG2 [2] = details: cytotoxicity
MRC-5 [3] = experiment: cells; details: Homo sapiens
HepG2 [4] = experiment: cells; details: Homo sapiens
[5] = Table S5 matching pairs series A and B
[6] = read-out: IC50 for MRC-5 [24 h], 24 h incubation
[7] = read-out: IC50 for HepG2 [24 h], 24 h incubation
[8] = Mycobacterium avium; read-out: Antimycobacterial Activity MIC M. avium
[9] = Mycolicibacterium aurum; read-out: Antimycobacterial Activity MIC M. aurum
[10] = Microplate Alamar Blue assay, read-out: Antimycobacterial Activity MIC Mtb H37Rv
[11] = read-out: Antimycobacterial Activity MIC Mtb H37Rv, Table S5 matching pairs series A and B
[12] = MRC5, 24 h, read-out: IC50 for MRC-5 [24 h]
[13] = MRC5, 72 h, read-out: IC50 for MRC-5 [72 h]
[14] = Mycolicibacterium smegmatis; read-out: Antimycobacterial Activity MIC M. smeg.
[15] = Mycobacterium tuberculosis, H37RA, read-out: Antimycobacterial Activity MIC Mtb H37Ra
[16] = HepG2, 24 h, read-out: IC50 for HepG2 [24 h]
[17] = HepG2, 72 h, read-out: IC50 for HepG2 [72 h]
[18] = Mycobacterium avium, read-out: Antimycobacterial Activity MIC M. avium
[19] = Mycolicibacterium aurum, read-out: Antimycobacterial Activity MIC M. aurum
[20] = Mycolicibacterium smegmatis, read-out: Antimycobacterial Activity MIC M. smeg.
[21] = Mycobacterium tuberculosis, H37RA; read-out: Antimycobacterial Activity MIC Mtb H37Ra

Row | Compound | MIC (Mtb H37Rv; [10]) [mg/L] | MIC (M. kansasii) [mg/L] | MIC (M. avium; [18]) [mg/L] | MIC (M. aurum; [19]) [mg/L] | MIC (M. smegmatis; [20]) [mg/L] | MIC (Mtb H37Ra; [21]) [mg/L] | further results
1 | COc1cccc(Cn2c(C)nc3ccccc3c2=O)c1 [Compound 2] |  |  |  |  |  |  | Antimycobacterial Activity MIC M. avium (M. avium): 62.5 mg/L; Antimycobacterial Activity MIC M. avium (M. avium; [5]): 62.5 mg/L; IC50 (MRC-5 [1]; [6]): > 300 µM; IC50 (MRC-5 [1]; read-out: IC50 for MRC-5 [72 h], 72 h incubation): 215 ± 24 µM; Antimycobacterial Activity MIC M. aurum (M. aurum): 125 mg/L; Antimycobacterial Activity MIC M. aurum (M. aurum; [5]): 125 mg/L; Antimycobacterial Activity MIC Mtb H37Rv (Mtb H37Rv; Microplate Alamar Blue assay): 100 mg/L; Antimycobacterial Activity MIC M. smeg. (M. smegmatis): 250 mg/L; Antimycobacterial Activity MIC M. smeg. (M. smegmatis; [5]): 250 mg/L; Antimycobacterial Activity MIC Mtb H37Ra (Mtb H37Ra): 62.5 mg/L; Antimycobacterial Activity MIC Mtb H37Ra (Mtb H37Ra; [5]): 62.5 mg/L; Antimycobacterial Activity MIC M. kans. (M. kansasii): 100 mg/L; IC50 (HepG2 [2]; [7]): 305 ± 3 µM; IC50 (HepG2 [2]; read-out: IC50 for HepG2 [72 h], 72 h incubation): 135 ± 6 µM
2 | Cc1nc2ccccc2c(=O)n1Cc1cccc(Cl)c1 [Compound 6] |  |  |  |  |  |  | Antimycobacterial Activity MIC M. avium (M. avium): 31.25 mg/L; Antimycobacterial Activity MIC M. avium (M. avium; [5]): 31.25 mg/L; IC50 (MRC-5 [1]; [6]): 551 ± 19 µM; Antimycobacterial Activity MIC M. aurum (M. aurum): 62.5 mg/L; Antimycobacterial Activity MIC M. aurum (M. aurum; [5]): 62.5 mg/L; Antimycobacterial Activity MIC Mtb H37Rv (Mtb H37Rv; Microplate Alamar Blue assay): 50 mg/L; Antimycobacterial Activity MIC Mtb H37Rv (Mtb H37Rv; [5]): 50 mg/L; Antimycobacterial Activity MIC M. smeg. (M. smegmatis): 62.5 mg/L; Antimycobacterial Activity MIC M. smeg. (M. smegmatis; [5]): 62.5 mg/L; Antimycobacterial Activity MIC Mtb H37Ra (Mtb H37Ra): 31.25 mg/L; Antimycobacterial Activity MIC Mtb H37Ra (Mtb H37Ra; [5]): 31.25 mg/L; Antimycobacterial Activity MIC M. kans. (M. kansasii): 25 mg/L; Antimycobacterial Activity MIC M. kans. (M. kansasii; [5]): 25 mg/L; IC50 (HepG2 [2]; [7]): 507 ± 48 µM
3 | Cc1nc2cc(Cl)ccc2c(=O)n1Cc1cccc(Cl)c1 [Compound 21] | 25 (≈ 78.3 µM) | > 100 |  |  |  |  | MIC (M. avium; [8]): ≥ 250 mg/L; Antimycobacterial Activity MIC M. avium (M. avium; [5]): ≥ 250 mg/L; MIC (M. aurum; [9]): ≥ 250 mg/L; Antimycobacterial Activity MIC M. aurum (M. aurum; [5]): ≥ 250 mg/L; MIC (Mtb H37Rv; [11]): 25 mg/L (≈ 78.3 µM); IC50 (MRC-5 [3]; [12]): > 50 µM; IC50 (MRC-5 [3]; [13]): > 50 µM; MIC (M. smegmatis; [14]): ≥ 250 mg/L; Antimycobacterial Activity MIC M. smeg. (M. smegmatis; [5]): ≥ 250 mg/L; Antimycobacterial Activity MIC Mtb H37Ra (Mtb H37Ra): 15.625 mg/L; MIC (Mtb H37Ra; [15]): 15.6 mg/L (≈ 49 µM); IC50 (HepG2 [4]; [16]): > 50 µM; IC50 (HepG2 [4]; [17]): > 50 µM
4 | Cc1nc2cc(Cl)ccc2c(=O)n1Cc1ccc(Cl)c(Cl)c1 [Compound 24] | 50 (≈ 141 µM) | 25 (≈ 70.7 µM) | ≥ 125 | ≥ 125 | ≥ 125 |  | Antimycobacterial Activity MIC M. avium (M. avium): ≥125 mg/L; Antimycobacterial Activity MIC M. aurum (M. aurum): ≥125 mg/L; MIC (Mtb H37Rv; [11]): > 100 mg/L; IC50 (MRC-5 [3]; [12]): > 50 µM; IC50 (MRC-5 [3]; [13]): > 50 µM; Antimycobacterial Activity MIC M. smeg. (M. smegmatis): ≥125 mg/L; Antimycobacterial Activity MIC Mtb H37Ra (Mtb H37Ra): 15.625 mg/L; MIC (Mtb H37Ra; [15]): 15.6 mg/L (≈ 44.2 µM); Antimycobacterial Activity MIC M. kans. (M. kansasii; [5]): 25 mg/L; IC50 (HepG2 [4]; [16]): > 50 µM; IC50 (HepG2 [4]; [17]): > 50 µM
5 | COc1cc(/C=N/n2c(C)nc3cc(Cl)ccc3c2=O)ccc1O [Compound 34] | > 100 | > 100 | ≥ 62.5 | ≥ 62.5 | ≥ 62.5 | ≥ 62.5 | 
6 | Cc1nc2cc(Cl)ccc2c(=O)n1/N=C/c1ccccc1O [Compound 35] | > 50 | > 50 | ≥ 31.2 | ≥ 31.2 | ≥ 31.2 | ≥ 31.2 | 
7 | Cc1nc2cc(Cl)ccc2c(=O)n1/N=C/c1cccc(O)c1 [Compound 36] | > 100 | > 100 | ≥ 62.5 | ≥ 62.5 | ≥ 62.5 | ≥ 62.5 | 
8 | Cc1nc2cc(Cl)ccc2c(=O)n1/N=C/c1ccc(O)cc1 [Compound 37] | > 50 | > 50 | ≥ 62.5 | ≥ 62.5 | ≥ 62.5 | ≥ 62.5 | 
9 | COc1ccccc1/C=N/n1c(C)nc2cc(Cl)ccc2c1=O [Compound 38] | > 25 | > 25 | ≥ 62.5 | ≥ 62.5 | ≥ 62.5 | ≥ 62.5 | 
10 | COc1cccc(/C=N/n2c(C)nc3cc(Cl)ccc3c2=O)c1 [Compound 39] | > 50 | > 50 | ≥ 62.5 | ≥ 62.5 | ≥ 62.5 | ≥ 62.5 | 
11 | COc1ccc(/C=N/n2c(C)nc3cc(Cl)ccc3c2=O)cc1 [Compound 40] | > 50 | > 50 | ≥ 15.6 | ≥ 15.6 | ≥ 15.6 | ≥ 15.6 | 
12 | Cc1nc2cc(Cl)ccc2c(=O)n1/N=C/C=C/c1ccccc1 [Compound 41] | > 25 | > 25 | ≥ 31.2 | ≥ 31.2 | ≥ 31.2 | ≥ 31.2 | 
13 | Cc1nc2cc(Cl)ccc2c(=O)n1/N=C/c1ccccc1F [Compound 42] | > 25 | > 25 | ≥ 31.2 | ≥ 31.2 | ≥ 31.2 | ≥ 31.2 | 
14 | Cc1nc2cc(Cl)ccc2c(=O)n1/N=C/c1cccc(F)c1 [Compound 43] | > 25 | > 25 | ≥ 62.5 | ≥ 62.5 | ≥ 62.5 | ≥ 62.5 | 
15 | Cc1nc2cc(Cl)ccc2c(=O)n1/N=C/c1ccc(F)cc1 [Compound 44] | > 25 | > 25 | ≥ 31.2 | ≥ 31.2 | ≥ 31.2 | ≥ 31.2 | 
16 | Cc1nc2cc(Cl)ccc2c(=O)n1/N=C/c1ccc(N(C)C)cc1 [Compound 45] | > 25 | > 25 | ≥ 15.6 | ≥ 15.6 | ≥ 15.6 | ≥ 15.6 | 
17 | Cc1ccccc1/C=N/n1c(C)nc2cc(Cl)ccc2c1=O [Compound 46] | > 25 | > 25 | ≥ 62.5 | ≥ 62.5 | ≥ 62.5 | ≥ 62.5 | 
18 | Cc1cccc(/C=N/n2c(C)nc3cc(Cl)ccc3c2=O)c1 [Compound 47] | > 25 | > 25 | ≥ 31.2 | ≥ 31.2 | ≥ 31.2 | ≥ 31.2 | 
19 | Cc1ccc(/C=N/n2c(C)nc3cc(Cl)ccc3c2=O)cc1 [Compound 48] | > 25 | > 25 | ≥ 31.2 | ≥ 31.2 | ≥ 31.2 | ≥ 31.2 | 
20 | Cc1nc2cc(Cl)ccc2c(=O)n1/N=C/c1ccccc1Cl [Compound 49] | > 25 | > 25 | ≥ 31.2 | ≥ 31.2 | ≥ 31.2 | ≥ 31.2 | 
21 | Cc1nc2cc(Cl)ccc2c(=O)n1/N=C/c1cccc(Cl)c1 [Compound 50] | > 50 | > 50 | ≥ 62.5 | ≥ 62.5 | ≥ 62.5 | ≥ 62.5 | 
22 | Cc1nc2cc(Cl)ccc2c(=O)n1/N=C/c1ccc(Cl)cc1 [Compound 51] | > 25 | > 25 | ≥ 15.6 | ≥ 15.6 | ≥ 15.6 | ≥ 15.6 | 
23 | Cc1nc2cc(Cl)ccc2c(=O)n1/N=C/c1ccccc1Br [Compound 52] | > 25 | > 25 | ≥ 31.2 | ≥ 31.2 | ≥ 31.2 | ≥ 31.2 | 
24 | Cc1nc2cc(Cl)ccc2c(=O)n1/N=C/c1cccc(Br)c1 [Compound 53, (E)-7-Chloro-3-((3-bromobenzylidene)amino)-2-methylquinazolin-4(3H)-one] | > 25 | > 25 | ≥ 31.2 | ≥ 31.2 | ≥ 31.2 | ≥ 31.2 | 
25 | NNC(=O)c1ccncc1 [INH, isoniazid, reference compound] | 0.2 (≈ 1.46 µM) | 25 (≈ 182 µM) |  |  |  | 0.25 (≈ 1.82 µM) | MIC (M. avium; Mycobacterium avium, DSM44156; internal quality controls (standards); read-out: MINIMUM INHIBITORY CONCENTRATION Mycobacterium avium DSM 44156): 500 to 1000 mg/L (≈ 3650 to 7290 µM); MIC (M. avium; [8]): 1000 mg/L (≈ 7290 µM); MIC (M. aurum; Mycolicibacterium aurum, DSM43999; internal quality controls (standards); read-out: MINIMUM INHIBITORY CONCENTRATION Mycolicibacterium aurum DSM 43999): 1.95 to 3.91 mg/L (≈ 14.2 to 28.5 µM); MIC (M. aurum; [9]): 3.91 mg/L (≈ 28.5 µM); MIC (M. smegmatis; Mycolicibacterium smegmatis, DSM43465; internal quality controls (standards); read-out: MINIMUM INHIBITORY CONCENTRATION Mycolicibacterium smegmatis DSM 43465): 15.6 to 31.2 mg/L (≈ 114 to 228 µM); MIC (M. smegmatis; [14]): 15.6 mg/L (≈ 114 µM); MIC (Mtb H37Ra; Mycobacterium tuberculosis, H37RA; internal quality controls (standards); read-out: MINIMUM INHIBITORY CONCENTRATION Mycobacterium tuberculosis H37Ra): 0.125 to 0.25 mg/L (≈ 0.911 to 1.82 µM)
